From patent US8791132B2, “Compounds and methods for treatment of hypertension” (Medivation Technologies, Inc., priority 2011, dated 2014) come the findings set out here.

pKi: −log10 of the molar value. “And” between values parts separate entries of the source, which are not always exact repeats. Equal values may be shown once.

Test [1] has as its target T1, human recombinant adrenergic α2A receptor (Homo sapiens, UniProt P08913).
T1 construct: expressed in transfected cells; host or cells: insect Sf9 cells
T1 sequence (P08913 1-465): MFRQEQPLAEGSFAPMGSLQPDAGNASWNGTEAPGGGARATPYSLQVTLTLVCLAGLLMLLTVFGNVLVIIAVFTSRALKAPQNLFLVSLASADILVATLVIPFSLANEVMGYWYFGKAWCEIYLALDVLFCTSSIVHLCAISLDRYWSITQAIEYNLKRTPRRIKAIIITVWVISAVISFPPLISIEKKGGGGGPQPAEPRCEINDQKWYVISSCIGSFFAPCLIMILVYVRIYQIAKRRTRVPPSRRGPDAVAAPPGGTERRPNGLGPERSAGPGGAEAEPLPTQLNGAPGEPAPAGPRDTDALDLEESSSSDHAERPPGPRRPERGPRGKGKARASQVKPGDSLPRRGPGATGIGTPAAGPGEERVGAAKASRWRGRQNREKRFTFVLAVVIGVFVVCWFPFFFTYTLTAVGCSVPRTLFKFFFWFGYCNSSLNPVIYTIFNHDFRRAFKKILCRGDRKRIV
The test is described as follows: Radioligand binding, adrenergic α2A ([3H]MK-912). The conditions noted are these: for inhibition at 0.1 µM: read-out: Percentage inhibition of ligand binding, Adrenergic α2A (0.1 μM), compound at 0.1 μM; for inhibition at 0.1 µM / inhibition at 0.03 µM / Percentage inhibition of ligand binding, Adrenergic α2A (0.1 μM): [3H]MK-912, repeat datapoints each shown; for inhibition at 0.03 µM: read-out: Percentage inhibition of ligand binding, Adrenergic α2A (0.03 μM), compound at 0.03 μM; for Percentage inhibition of ligand binding, Adrenergic α2A (0.1 μM): compound at 0.1 μM. In outline:
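Sf9 membranes, 1 nM [3H]MK-912, 60 min, 25 °C, Tris-HCl pH 7.4/MgCl2/EDTA buffer. NSB: 10 μM WB-4101. Filtration, counting; % inhibition of specific binding.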

Test [2] addresses T2, rat adrenergic α1B receptor (Rattus norvegicus, UniProt P15823).
T2 construct: rat adrenergic α1B receptor obtained from Wistar Rat liver; from tissue; host or cells: Wistar rat liver
T2 sequence (P15823 1-515): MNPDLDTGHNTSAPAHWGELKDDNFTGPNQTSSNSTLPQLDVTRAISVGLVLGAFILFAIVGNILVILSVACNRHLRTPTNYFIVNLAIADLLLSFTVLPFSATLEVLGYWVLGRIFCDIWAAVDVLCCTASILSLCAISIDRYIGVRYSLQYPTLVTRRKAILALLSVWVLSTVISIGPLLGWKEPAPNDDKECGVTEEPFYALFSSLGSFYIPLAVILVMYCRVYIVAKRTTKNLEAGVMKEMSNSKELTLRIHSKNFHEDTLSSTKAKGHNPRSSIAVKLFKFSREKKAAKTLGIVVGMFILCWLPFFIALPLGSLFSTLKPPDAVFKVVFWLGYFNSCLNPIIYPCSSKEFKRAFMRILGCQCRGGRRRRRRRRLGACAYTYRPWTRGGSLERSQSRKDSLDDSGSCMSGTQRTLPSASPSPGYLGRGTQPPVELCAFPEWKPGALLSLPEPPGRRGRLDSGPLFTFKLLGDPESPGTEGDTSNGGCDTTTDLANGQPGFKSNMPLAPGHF
The test can be described thus: Radioligand binding, adrenergic α1B ([3H]Prazosin). The conditions noted are these: [3H]Prazosin, repeat datapoints each shown; for inhibition at 0.03 µM: read-out: Percentage inhibition of ligand binding, Adrenergic α1B (0.03 μM), compound at 0.03 μM; for inhibition at 0.1 µM: read-out: Percentage inhibition of ligand binding, Adrenergic α1B (0.1 μM), compound at 0.1 μM; for Percentage inhibition of ligand binding, Adrenergic α1B (0.1 μM): compound at 0.1 μM. The procedure, abridged:
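Rat α1B receptor from Wistar rat liver was incubated with 0.25 nM [3H]prazosin for 60 min at 25 °C in 50 mM Tris-HCl, pH 7.4, 0.5 mM EDTA. Non-specific binding was defined with 10 μM phentolamine. Bound radioligand was measured by filtration and counting, reported as percent inhibition of specific binding.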

In test [3] the target is T3, human recombinant adrenergic α1D receptor (Homo sapiens, UniProt P25100).
T3 construct: expressed in transfected cells; host or cells: HEK-293
T3 sequence (P25100 1-572): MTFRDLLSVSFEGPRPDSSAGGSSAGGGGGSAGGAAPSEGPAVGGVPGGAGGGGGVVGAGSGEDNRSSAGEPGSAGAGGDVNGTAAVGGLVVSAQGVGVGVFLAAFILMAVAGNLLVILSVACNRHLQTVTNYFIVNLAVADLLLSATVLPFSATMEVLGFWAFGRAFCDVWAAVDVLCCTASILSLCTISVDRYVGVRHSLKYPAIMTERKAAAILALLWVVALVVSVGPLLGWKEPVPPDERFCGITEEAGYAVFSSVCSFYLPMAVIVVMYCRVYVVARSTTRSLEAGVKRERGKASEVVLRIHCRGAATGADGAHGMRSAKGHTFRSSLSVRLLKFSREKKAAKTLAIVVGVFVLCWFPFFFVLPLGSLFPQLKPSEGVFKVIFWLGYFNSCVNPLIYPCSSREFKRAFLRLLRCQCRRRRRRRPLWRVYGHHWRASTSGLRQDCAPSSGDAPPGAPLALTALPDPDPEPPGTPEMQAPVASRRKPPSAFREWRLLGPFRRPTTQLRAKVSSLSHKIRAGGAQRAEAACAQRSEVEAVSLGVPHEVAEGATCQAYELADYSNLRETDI
The test is described as follows: Radioligand binding, adrenergic α1D ([3H]Prazosin). To be noted: [3H]Prazosin, repeat datapoints each shown; for inhibition at 0.1 µM: read-out: Percentage inhibition of ligand binding, Adrenergic α1D (0.1 μM), compound at 0.1 μM; for inhibition at 0.03 µM: read-out: Percentage inhibition of ligand binding, Adrenergic α1D (0.03 μM), compound at 0.03 μM; for Percentage inhibition of ligand binding, Adrenergic α1D (0.1 μM): compound at 0.1 μM. The procedure:
Compounds were incubated with 0.6 nM [3H]Prazosin for 60 min at 25° C. Non-specific binding was estimated in the presence of 10 μM phentolamine. Receptor proteins were filtered and washed, the filters were then counted to determine [3H]Prazosin specifically bound. […] Biochemical assay results are presented as the percent inhibition of specific binding in Table B1.

With `Cc1ccc(CCn2c3c(c4cc(C)ccc42)CN(C)CC3)cc1` [compound 180, 2,3,4,5-tetrahydro-2,8-dimethyl-5-(4-methylphenethyl)-1H-pyrido[4,3-b]indole], the inhibition at 0.1 µM in test [1] worked out at 95%; in test [2], 87%; in test [3] it was 74%. In addition, in test [2], the inhibition at 0.03 µM amounted to 70%.
As to `Cc1ccc(CCn2c3c(c4ccccc42)CN(C)CC3)cc1` [compound 181, 2,3,4,5-Tetrahydro-2-methyl-5-(4-methylphenethyl)-1H-pyrido[4,3-b]indole], the inhibition at 0.1 µM was 89% in test [1], 30% in test [2] and 32% in test [3]. Moreover, the inhibition at 0.03 µM in test [2] was -4%.
In the case of `CN1CCc2c(c3ccccc3n2CCc2ccccc2)C1` [compound 182, 2,3,4,5-Tetrahydro-2-methyl-5-phenethyl-1H-pyrido[4,3-b]indole], the inhibition at 0.1 µM in test [1] came to 69%; in test [2] it was 29%; in test [3] it was 16%. Also, the inhibition at 0.03 µM in test [2] was 13%.
On to `C/C(=C\n1c2c(c3cc(Cl)ccc31)CN(C)CC2)c1ccncc1` [compound 185, 8-chloro-2,3,4,5-tetrahydro-2-methyl-5-((E)-2-(pyridin-4-yl)prop-1-enyl)-1H-pyrido[4,3-b]indole], for which, in test [1], the pKi is 7.68, the inhibition at 0.03 µM came to 37% and the inhibition at 0.1 µM came out at 62%. Besides, in test [2], the inhibition at 0.03 µM came out at 63% and the inhibition at 0.1 µM was found to be 86%. Moreover, in test [3], the inhibition at 0.03 µM worked out at 47% and the inhibition at 0.1 µM is 58%.
`C/C(=C\n1c2c(c3cc(C)ccc31)CN(C)CC2)c1ccc(C)nc1` [compound 186]: in test [1], the pKi is 7.96; the “Percentage inhibition of ligand binding, Adrenergic α2A (0.1 μM)” value is 72%; the inhibition at 0.03 µM came out at 53%; the inhibition at 0.1 µM worked out at 54%. Also, in test [2], the “Percentage inhibition of ligand binding, Adrenergic α1B (0.1 μM)” value came out at 55%; the inhibition at 0.03 µM was 24%; the inhibition at 0.1 µM was 53%. Further, in test [3], the “Percentage inhibition of ligand binding, Adrenergic α1D (0.1 μM)” value was 55%; the inhibition at 0.03 µM was determined as 31%; the inhibition at 0.1 µM amounted to 51%.
For the compound `C/C(=C\n1c2c(c3cc(C)ccc31)CN(C)CC2)c1cnc(N(C)C)nc1` [compound 187], in test [1], the pKi is 7.75; the “Percentage inhibition of ligand binding, Adrenergic α2A (0.1 μM)” value was 63% and 84%; the inhibition at 0.03 µM was determined as 41%. In addition, in test [2], the inhibition at 0.1 µM stood at 71%. For the same compound, the inhibition at 0.1 µM in test [3] came to 83%.
For `C/C(=C\n1c2c(c3cc(C)ccc31)CN(C)CC2)c1sccc1C` [compound 189], in test [1], the pKi is 8.54; the “Percentage inhibition of ligand binding, Adrenergic α2A (0.1 μM)” value is given as 86%; the inhibition at 0.03 µM was 71%; the inhibition at 0.1 µM was 81%. Also, in test [2], the “Percentage inhibition of ligand binding, Adrenergic α1B (0.1 μM)” value is 31% and 55%; the inhibition at 0.03 µM is 26%. Besides, the inhibition at 0.1 µM in test [3] came to 16%.
As to `Cc1ccc2c(c1)c1c(n2C2=C(c3ccc(C)s3)CCC2)CCN(C)C1` [compound 190, 2,8-dimethyl-5-(2-(5-methylthiophen-2-yl)cyclopent-1-enyl)-2,3,4,5-tetrahydro-1H-pyrido[4,3-b]indole], in test [1], the pKi was 7.89; the “Percentage inhibition of ligand binding, Adrenergic α2A (0.1 μM)” value is given as 89%; the inhibition at 0.03 µM is 49%; the inhibition at 0.1 µM was found to be 70%. Moreover, in test [2], the “Percentage inhibition of ligand binding, Adrenergic α1B (0.1 μM)” value came to 15%; the inhibition at 0.03 µM turned out to be 9%; the inhibition at 0.1 µM came out at 14%. In test [3], the inhibition at 0.1 µM stood at 31%.
On to `Cc1ccc2c(c1)c1c(n2C2=C(c3ccc4c(ccn4C)c3)CCC2)CCN(C)C1` [compound 191, 2,8-dimethyl-5-(2-(1-methyl-1H-indol-5-yl)cyclopent-1-enyl)-2,3,4,5-tetrahydro-1H-pyrido[4,3-b]indole], for which, in test [1], the pKi was 8.68; the “Percentage inhibition of ligand binding, Adrenergic α2A (0.1 μM)” value turned out to be 98%; the inhibition at 0.03 µM turned out to be 85%; the inhibition at 0.1 µM was found to be 89%. Also, in test [2], the “Percentage inhibition of ligand binding, Adrenergic α1B (0.1 μM)” value amounted to 20%; the inhibition at 0.03 µM was 2%; the inhibition at 0.1 µM was determined as 10%. In addition, in test [3], the inhibition at 0.1 µM amounted to 43%.
`CCN1CCc2c(c3cc(C)ccc3n2CCc2ccccc2)C1` [compound 201]: the inhibition at 0.1 µM in test [1] came out at 67%; in test [2] it was 50%; in test [3], 18%. Also, in test [2], the inhibition at 0.03 µM worked out at 22%.
In the same order, the values of `CCN1CCc2c(c3cc(C)ccc3n2CCc2ccc(C)cc2)C1` [compound 202] are 92%, 52%, 52% and 29%.
On to `CCN1CCc2c(c3cc(C)ccc3n2CC(O)c2ccc(C)cc2)C1` (stereo not shown) [compound 203], for which, in test [1], the “Percentage inhibition of ligand binding, Adrenergic α2A (0.1 μM)” value is on record as 88%. Further, in test [2], the “Percentage inhibition of ligand binding, Adrenergic α1B (0.1 μM)” value is recorded as 71% and the inhibition at 0.03 µM was 37%. Also, in test [3], the inhibition at 0.1 µM is 47%.
Consider `CN1CCc2c(c3cccc(Cl)c3n2CCc2ccccc2)C1` [compound 216], for which, in test [1], the pKi is 8.02; the “Percentage inhibition of ligand binding, Adrenergic α2A (0.1 μM)” value was 76% and 98%; the inhibition at 0.03 µM turned out to be 58%. Moreover, the “Percentage inhibition of ligand binding, Adrenergic α1B (0.03 μM)” value in test [2] (compound at 0.03 μM, 0.03 µM) came out at 47%. Moreover, in test [2], the inhibition at 0.03 µM is 34% and the inhibition at 0.1 µM came to 65%. Besides, in test [3], the inhibition at 0.03 µM worked out at 38%.
Turning to `COc1ccc(/C(C)=C/n2c3c(c4cc(Cl)ccc42)CCN(C)CC3)cc1F` [compound 240], in test [1], the “Percentage inhibition of ligand binding, Adrenergic α2A (0.1 μM)” value is listed as 87% and the inhibition at 0.1 µM worked out at 82%. Moreover, in test [2], the “Percentage inhibition of ligand binding, Adrenergic α1B (0.1 μM)” value came out at 75% and the inhibition at 0.1 µM was found to be 74%. In test [3], the “Percentage inhibition of ligand binding, Adrenergic α1D (0.1 μM)” value turned out to be 47% and the inhibition at 0.1 µM is 44%.

As a reminder, the inhibition is the change of the read-out against control, counted positive when it falls. What is called pKi is the negative decadic logarithm of the Ki, by convention in mol/L.
